The record followed here is patent publication US20230250108A1, “TETRAHYDROISOQUINOLINE COMPOUNDS AND USE THEREOF” (JIANGSU SIMCERE PHARMACEUTICAL CO., LTD., priority 2020, published 2023).

Structures can show the parent of a compound that is named as a salt.

Assay [1] has as its system Z-138 cells. In words: Inhibitory activity on tumor cell proliferation (Cell-Titer Glo, 8 days). In kind it is cell-based. To be noted: Homo sapiens, 192 h, read-out: Inhibition of cell proliferation Z-138 IC50. On the procedure:
Materials and cells: Z-138 cells were purchased from ATCC (USA); IMDM medium and penicillin-streptomycin were purchased from Sigma PLC. (USA); horse serum was purchased from Hyclone (USA); 96-well plate was purchased from Corning (USA); and Cell-Titer Glo reagent was purchased from Promega (USA).
Cell culture: Z-138 cells were cultured in an IMDM culture solution containing 10% Horse serum+1% penicillin−streptomycin at 37° C., 5% CO2. Cells in logarithmic growth phase were suitable for the experiment.
Detection of cell proliferation activity: The inhibitory activities of the compounds on the proliferation of Z-138 cells were detected by using the Cell-Titer Glo reagent. The concentrations of the cells were adjusted, and 180 μL was inoculated in each well of the 96-well plate (500/well) and equilibrated for 10-15 minutes at 37° C., 5% CO2. 20 μL of a culture solution containing the compounds was added into each well with the final concentration reaching 0-300 nM (initial concentration: 300 nM, 3-fold dilution, for 10 points), and the DMSO content was 0.1%. The cell plate was placed at 37° C., 5% CO2 and incubated for 8 days. Culture solution was replaced at day 4: 100 μL of the supernatant was slowly aspirated and 100 μL of a fresh culture solution containing the compounds was provided as a supplement while the concentrations of the compounds were held constant. The cell viability was detected by using the Cell-Titer Glo reagent.

The target in assay [2] is T1, PRMT5/MEP50 (Homo sapiens, UniProt O14744).
T1 construct: purchased BPS Bioscience Inc. (USA)
Put plainly: PRMT5 enzymatic activity inhibition experiment (AlphaScreen). It counts as biochemical. To be noted: PRMT5/MEP50, Histone H4 peptide substrate; read-out: Inhibition of enzymatic activity IC50. From the text: Materials: PRMT5/MEP50 proteins were purchased from BPS Bioscience Inc. (USA); Histone H4 Peptide substrate was purchased from Sangon Biotech (Shanghai) Co., Ltd.; Anti-Histone H4 (symmetric dimethyl R3) antibody—ChIP Grade was purchased from Abcam PLC. (USA); S-(5′-Adenosyl)-L-methionine chloride dihydrochloride was purchased from Sigma PLC. (USA); 384-well plate, AlphaScreen Streptavidin Donor beads, AlphaScreen Protein A Acceptor beads, and Envision 2104 multi-label Reader were purchased from Perkin-Elmer Instruments (USA) Corporation; and Echo 550 Liquid Handler was purchased from Labcyte Inc. (USA).
Enzymatic activity assay: The compounds were added into a 384-well plate by using the Echo 550 Liquid Handler with the final concentration of 0-1000 nM (initial concentration: 1000 nM, 3-fold dilution, for 10 points), and the DMSO content was 0.5%. 10 μL of a 2× PRMT5/MEP50 solution was added into each well and incubated at room temperature for 30 minutes. 10 μL of 2× PRMT5/MEP50 substrate solution was added to each well to start the reaction and incubated at room temperature for 60 minutes. A 6× detection reagent containing AlphaScreen Protein A Acceptor beads and Anti-Histone H4 (symmetric dimethyl R3) antibodies was prepared and 5 μL was added to each well. The plate was incubated at room temperature for 60 minutes. A 6× detection reagent containing AlphaScreen Streptavidin Donor beads was prepared and 5 μL was added to each well. The plate was incubated at room temperature for 60 minutes. The signal values were detected by using the Envision.

T1 sequence (O14744 2-637 limits assumed): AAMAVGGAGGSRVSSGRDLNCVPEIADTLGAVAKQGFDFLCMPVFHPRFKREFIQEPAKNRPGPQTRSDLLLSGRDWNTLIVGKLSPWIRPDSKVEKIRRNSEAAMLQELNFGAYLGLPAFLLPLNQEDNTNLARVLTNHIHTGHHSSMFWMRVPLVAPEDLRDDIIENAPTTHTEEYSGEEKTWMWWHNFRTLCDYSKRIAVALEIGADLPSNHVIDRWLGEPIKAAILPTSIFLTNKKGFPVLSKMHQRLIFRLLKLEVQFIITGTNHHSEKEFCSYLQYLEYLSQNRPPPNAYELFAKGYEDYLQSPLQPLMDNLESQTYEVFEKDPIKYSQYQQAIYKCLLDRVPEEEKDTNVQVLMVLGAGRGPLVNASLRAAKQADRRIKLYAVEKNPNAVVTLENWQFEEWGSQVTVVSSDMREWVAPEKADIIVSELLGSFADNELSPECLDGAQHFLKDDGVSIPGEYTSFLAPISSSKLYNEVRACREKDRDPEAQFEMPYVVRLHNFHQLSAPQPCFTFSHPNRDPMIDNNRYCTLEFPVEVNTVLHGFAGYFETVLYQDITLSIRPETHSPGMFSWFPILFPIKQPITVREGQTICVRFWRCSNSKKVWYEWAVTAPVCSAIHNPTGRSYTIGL
T1 sequence (Q9BQA1 2-342 partner limits assumed): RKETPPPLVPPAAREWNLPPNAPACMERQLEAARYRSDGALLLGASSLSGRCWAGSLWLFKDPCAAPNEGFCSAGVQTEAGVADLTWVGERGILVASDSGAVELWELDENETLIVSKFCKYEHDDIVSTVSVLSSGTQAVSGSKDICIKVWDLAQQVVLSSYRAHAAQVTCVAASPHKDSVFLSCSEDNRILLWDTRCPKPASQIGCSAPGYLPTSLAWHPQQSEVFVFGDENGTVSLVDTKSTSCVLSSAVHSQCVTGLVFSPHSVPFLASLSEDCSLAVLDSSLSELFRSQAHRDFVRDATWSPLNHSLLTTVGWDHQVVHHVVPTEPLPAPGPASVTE

As for `CCN1CCN(C[C@@H](O)[C@@H]2Cc3ccccc3CN2)C(=O)c2ccc(C(=O)N(C)Cc3ccccc3)cc21` [Compound 016, N-benzyl-1-ethyl-4-((R)-2-hydroxy-2-((S)-1,2,3,4-tetrahydroisoquinolin-3-yl)ethyl)-N-methyl-5-oxo-2,3,4,5-tetrahydro-1H-benzo[e][1,4]diaza-8-carboxamide hydrochloride], the IC50 in assay [1] is 45.1 nM. Still for that read-out and setting: next, `CCN1CCN(C[C@@H](O)[C@@H]2Cc3ccccc3CN2)C(=O)c2ccc(C(=O)N3CCC4(CC3)CC(=O)C4)cc21` [Compound 026, 1-ethyl-4-((R)-2-hydroxy-2-((S)-1,2,3,4-tetrahydroisoquinolin-3-yl)ethyl)-8-(2-oxo-7-azaspiro[3.5]nonane-7-carbonyl)-1,2,3,4-tetrahydro-5H-benzo[e][1,4]diazepin-5-one]: 5.62 nM. On to `CCN1CCN(C[C@@H](O)[C@@H]2Cc3ccccc3CN2)C(=O)c2ccc(C(=O)N3CCN(C(C)=O)CC3)cc21` [Compound 015, 8-(4-acetylpiperazine-1-carbonyl)-1-ethyl-4-((R)-2-hydroxy-2-((S)-1,2,3,4-tetrahydroisoquinolin-3-yl)ethyl)-1,2,3,4-tetrahydro-5H-benzo[e][1,4]diazepin-5-one hydrochloride], for which the IC50 in assay [1] worked out at 11.1 nM.

Consider `CCN1CCN(C[C@@H](O)[C@@H]2Cc3ccccc3CN2)C(=O)c2ccc(C(=O)N3CCC4(CC4)C(F)(F)C3)cc21` [Compound 012, 8-(4,4-difluoro-6-azaspiro[2.5]octane-6-carbonyl)-1-ethyl-4-((R)-2-hydroxy-2-((S)-1,2,3,4-tetrahydroisoquinolin-3-yl)ethyl)-1,2,3,4-tetrahydro-5H-benzo[e][1,4]diazepin-5-one hydrochloride], for which, in assay [1], the IC50 was 4.09 nM. As for `CCN1CCN(C[C@@H](O)[C@@H]2Cc3ccccc3CN2)C(=O)c2ccc(C(=O)N3CC4(CCC(OC)CC4)C3)cc21` [Compound 011, 1-ethyl-4-((R)-2-hydroxy-2-((S)-1,2,3,4-tetrahydroisoquinolin-3-yl)ethyl)-8-(7-methoxy-2-azaspiro[3.5]nonane-2-carbonyl)-1,2,3,4-tetrahydro-5H-benzo[e][1,4]diazepin-5-one hydrochloride], in assay [1], the IC50 is 2.2 nM.

With `CCN1CCN(C[C@@H](O)[C@@H]2Cc3ccccc3CN2)C(=O)c2ccc(C(=O)N(C)CCc3cccnc3)cc21` [Compound 018, 1-ethyl-4-((R)-2-hydroxy-2-((S)-1,2,3,4-tetrahydroisoquinolin-3-yl)ethyl)-N-methyl-5-oxo-N-(2-(pyridin-3-yl)ethyl)-2,3,4,5-tetrahydro-1H-benzo[e][1,4]diazepine-8-carboxamide hydrochloride], the IC50 in assay [1] is 26 nM. Still for that read-out and setting: next, `CCN1CCN(C[C@@H](O)[C@@H]2Cc3ccccc3CN2)C(=O)c2ccc(C(=O)N(C)CCc3ccc(F)cc3)cc21` [Compound 017, 1-ethyl-N-(4-fluorophenethyl)-4-((R)-2-hydroxy-2-((S)-1,2,3,4-tetrahydroisoquinolin-3-yl)ethyl)-N-methyl-5-oxo-2,3,4,5-tetrahydro-1H-benzo[e][1,4]diazepine-8-carboxamide hydrochloride]: 27.6 nM; `CCN1CCN(C[C@@H](O)[C@@H]2Cc3ccccc3CN2)C(=O)c2ccc(C(=O)N3CC4(COC4)C3)cc21` [Compound 025, 1-ethyl-4-((R)-2-hydroxy-2-((S)-1,2,3,4-tetrahydroisoquinolin-3-yl)ethyl)-8-(2-oxa-6-azaspiro[3.3]heptane-6-carbonyl)-1,2,3,4-tetrahydro-5H-benzo[e][1,4]diazepin-5-one]: 138 nM. Regarding `CCN1CCN(C[C@@H](O)[C@@H]2Cc3ccccc3CN2)C(=O)c2ccc(C(=O)N3CCOCC3)cc21` [Compound 014, 1-ethyl-4-((R)-2-hydroxy-2-((S)-1,2,3,4-tetrahydroisoquinolin-3-yl)ethyl)-8-(morpholine-4-carbonyl)-1,2,3,4-tetrahydro-5H-benzo[e][1,4]diazepin-5-one hydrochloride], the IC50 in assay [1] came out at 11.7 nM.

Consider `CCN1CCN(C[C@@H](O)[C@@H]2Cc3ccccc3CN2)C(=O)c2ccc(C(=O)N3CCC4(CC3)CC(N(C)C)C4)cc21` [Compound 021, 8-(2-(dimethylamino)-7-azaspiro[3.5]nonane-7-carbonyl)-1-ethyl-4-((R)-2-hydroxy-2-((S)-1,2,3,4-tetrahydroisoquinolin-3-yl)ethyl)-1,2,3,4-tetrahydro-5H-benzo[e][1,4]diazepin-5-one hydrochloride], for which the IC50 in assay [1] came to 8.35 nM. On to `COC1CC2CCC(C1)N2C(=O)c1ccc2c(c1)OCCN(C[C@@H](O)[C@@H]1Cc3ccccc3CN1)C2=O` (stereo partly drawn) [Compound 008, 4-((R)-2-hydroxy-2-((S)-1,2,3,4-tetrahydroisoquinolin-3-yl)ethyl)-8-(3-methoxy-8-azabicyclo[3.2.1]octane-8-carbonyl)-3,4-dihydrobenzo[f][1,4]oxazepin-5(2H)-one], for which the IC50 in assay [2] was 12.2 nM; in assay [1], 6.04 nM. With `Cl.[2H]C([2H])([2H])OC1CC2(CCN(C(=O)c3ccc4c(c3)N(CC)CCN(C[C@@H](O)[C@@H]3Cc5ccccc5CN3)C4=O)CC2)C1` [Compound 027, 1-ethyl-4-((R)-2-hydroxy-2-((S)-1,2,3,4-tetrahydroisoquinolin-3-yl)ethyl)-8-(2-(methoxy-d3)-7-azaspiro[3.5]nonane-7-carbonyl)-1,2,3,4-tetrahydro-5H-benzo[e][1,4]diazepin-5-one hydrochloride], the IC50 in assay [1] was determined as 2.36 nM. Turning to `CCN1CCN(C[C@@H](O)[C@@H]2Cc3ccccc3CN2)C(=O)c2ccc(C(=O)N3CC4COCC4C3)cc21` (stereo partly drawn) [Compound 023, 1-ethyl-8-(hexahydro-1H-furo[3,4-c]pyrrole-5-carbonyl)-4-((R)-2-hydroxy-2-((S)-1,2,3,4-tetrahydroisoquinolin-3-yl)ethyl)-1,2,3,4-tetrahydro-5H-benzo[e][1,4]diazepin-5-one hydrochloride], the IC50 in assay [1] is 16.8 nM. On the same count and under the same terms, next, `CCN1CCN(C[C@@H](O)[C@@H]2Cc3ccccc3CN2)C(=O)c2ccc(C(=O)N3C4CCC3CC(O)C4)cc21` (stereo partly drawn) [Compound 022, 1-ethyl-4-((R)-2-hydroxy-2-((S)-1,2,3,4-tetrahydroisoquinolin-3-yl)ethyl)-8-(3-hydroxy-8-azabicyclo[3.2.1]octane-8-carbonyl)-1,2,3,4-tetrahydro-5H-benzo[e][1,4]diazepin-5-one hydrochloride]: 14.7 nM; `CCN(CC)C(=O)c1ccc2c(c1)N(CC)CCN(C[C@@H](O)[C@@H]1Cc3ccccc3CN1)C2=O` [Compound 019, N,N,1-triethyl-4-((R)-2-hydroxy-2-((S)-1,2,3,4-tetrahydroisoquinolin-3-yl)ethyl)-5-oxo-2,3,4,5-tetrahydro-1H-benzo[e][1,4]diazepine-8-carboxamide hydrochloride]: 20.4 nM. Take `CCN1CCN(C[C@@H](O)[C@@H]2Cc3ccccc3CN2)C(=O)c2ccc(C(=O)N3CCC4(CCOCC4)C3)cc21` [Compound 010, 1-ethyl-4-((R)-2-hydroxy-2-((S)-1,2,3,4-tetrahydroisoquinolin-3-yl)ethyl)-8-(8-oxa-2-azaspiro[4.5]decane-2-carbonyl)-1,2,3,4-tetrahydro-5H-benzo[e][1,4]diazepin-5-one hydrochloride]: the IC50 in assay [1] stood at 1.93 nM.

In the case of `CCN1CCN(C[C@@H](O)[C@@H]2Cc3ccccc3CN2)C(=O)c2ccc(C(=O)N3C4CCCC3COC4)cc21` [Compound 020, 8-(3-oxa-9-azabicyclo[3,3,1]nonane-9-carbonyl)-1-ethyl-4-((R)-2-hydroxy-2-((S)-1,2,3,4-tetrahydroisoquinolin-3-yl)ethyl)-1,2,3,4-tetrahydro-5H-benzo[e][1,4]diazepin-5-one hydrochloride], the IC50 in assay [1] turned out to be 3.71 nM. In the case of `CCN1CCN(C[C@@H](O)[C@@H]2Cc3ccccc3CN2)C(=O)c2ccc(C(=O)N3CCC4(CC3)CC4(F)F)cc21` [Compound 013, 8-(1,1-difluoro-6-azaspiro[2.5]octane-6-carbonyl)-1-ethyl-4-((R)-2-hydroxy-2-((S)-1,2,3,4-tetrahydroisoquinolin-3-yl)ethyl)-1,2,3,4-tetrahydro-5H-benzo[e][1,4]diazepin-5-one hydrochloride], the IC50 in assay [1] worked out at 2.37 nM.
